Experiment [1] addresses T1, recombinant human autotaxin (Homo sapiens, UniProt Q13822).
T1 construct: full length human autotaxin with a C-terminal His tag transfected into 293E cells; His tag (C); made in house; host or cells: 293E cells
In words: Inhibition of Autotaxin as Measured by Choline Release. It counts as biochemical. The settings on record: substrate LPC 16:0 30 μM, 37° C., 1 hour; arithmetic mean. How it is done: The purpose of this assay is to detect autotaxin inhibition using a choline release assay.
Test compounds (10 mM stocks in 100% DMSO) are serially diluted in 100% DMSO resulting in 10 concentrations of 100× inhibitor in half area 96 well plates (Corning 3992). Each of these 10 wells in 100% DMSO is diluted 1:33.33 in assay buffer in round bottom 96 well plates (Fisher 12565502) resulting in 3× concentrations in well containing 3% DMSO. The assay buffer is 50 mM Tris pH8.0, 5 mM KCl, 1 mM CaCl2, 1 mM MgCl2, 0.01% TRITON™ X-100 (Sigma T9284) and 0.01% fatty acid free bovine serum albumin (Sigma A8806). A 20 μl aliquot of each 3× test compound is then added to black flat bottom 96 well plates (Corning 3991) in singlicate. A 20 μl aliquot per well of 3× recombinant human autotaxin (full length human autotaxin with a C-terminal His tag transfected into 293E cells and purified via nickel chelate and size exclusion chromatography) is then added to every well except for the no enzyme control wells. […] The resorufin on the plates is measured with a SpectraMax Gemini EM fluorometer at excitation-emission wavelengths of 530-590 nm using SoftMax Pro 4.8 software. IC50s are calculated using 4 parameter curve fits with the internal Lilly software OLO curve fitting tool. Results are expressed as the arithmetic mean +/− standard deviation; n=x.

Another experiment addresses T2, endogenous autotaxin (Homo sapiens, UniProt Q13822).
T2 construct: The increased endogenous LPC levels are cleaved by endogenous autotaxin; tissue Lampire Biologicals; host or cells: pooled human plasma (healthy female donors, sodium heparin)
In words: Reduction of LPA in the Presence of Human Plasma. It counts as biochemical. The settings on record: 90% pooled human plasma, 3 hours at 37° C., total LPA by mass spec; arithmetic mean. The source says: The following assay is intended to measure the reduction of LPA. This assay is a tool that can be used to identify selective autotaxin-mediated LPA inhibitor compounds when it is used to test compounds that have been identified as autotaxin inhibitors. LPA biosynthesis through autotaxin is believed to the source of LPA for LPA1 mediated neuropathic pain. Makoto Inoue, et. al, “Autotaxin, a synthetic enzyme of lysophosphatidic acid (LPA), mediates the induction of nerve-injured neuropathic pain”, Molecular Pain, 2008, 4:6. Targeted inhibition of the autotaxin mediated LPA biosynthesis is supported by the results of this assay.
Units of plasma from healthy human female donors collected in sodium heparin (Lampire Biologicals) are pooled, aliquoted and stored at −80° C. […] A 400 μl aliquot of extraction buffer (50% methanol, 49.9% acetonitrile, 0.1% acetic acid) containing LPA internal standards (50 ng/ml D5 deuterium LPA 16:0 and 50 ng/ml D5 deuterium LPA 18:0) is added to each well and the total LPA in each sample is determined by mass spec analysis. Percent reduction of LPA is calculated according to the following formula: 100−(3 hour plasma+test compound−0 hour plasma no test compound control)/(3 hour plasma no test compound control−0 hour plasma no test compound control)×100
IC50 values are calculated using 4 parameter curve fitting. […]

Structures are written as SMILES.

On to `O=C(OCC1CCc2nccn2C1)N1Cc2cnc(NC3Cc4ccccc4C3)nc2C1` (single isomer, unassigned; isomer 2) [Example 3, 5,6,7,8-tetrahydroimidazo[1,2-a]pyridin-6-ylmethyl 2-(2,3-dihydro-1H-inden-2-ylamino)-5,7-dihydro-6H-pyrrolo[3,4-d]pyrimidine-6-carboxylate isomer 2], for which the IC50 (usually the concentration that gives 50% inhibition) in experiment [1] is under 1.7 nM; on endogenous autotaxin, 2.22 nM.
As to `O=C(OCC1Cn2ccnc2CO1)N1Cc2cnc(NC3Cc4ccccc4C3)nc2C1` (single isomer, unassigned; isomer 2) [Example 8, 5,6-dihydro-8H-imidazo[2,1-c][1,4]oxazin-6-ylmethyl 2-(2,3-dihydro-1H-inden-2-ylamino)-5,7-dihydro-6H-pyrrolo[3,4-d]pyrimidine-6-carboxylate isomer 2], the IC50 in experiment [1] amounted to 2.04 nM; at endogenous autotaxin, 12.9 nM.

The values are drawn from patent publication US9394317B2, “Imidazo pyridine compounds” (Eli Lilly and Company, priority 2013, dated 2016).
